The subject of data set [1] is mouse aortic endothelial cells (MAECs). The data set is classed as cell-based.
The subject of data set [2] is bovine lung microvascular endothelial cells (BLMVECs).
Method: Bovine Lung Microvasular Endothelial Cells (BLMVECs) Culture The BLMVECs used in this study were obtained from the VEC Technologies, Inc, New York. BLMVECs cultured in MEM were maintained in 75 mm flasks at 37° C. in a humidified atmosphere of 5% CO2/95% air and grown to contact-inhibited monolayers with a typical cobblestone morphology [157]. Cells from each primary flask were detached with 0.05% trypsin, resuspended in fresh medium, and cultured in complete medium to 70% confluency for other studies. Cells from passages 10-14 were used in all the experiments.
Preparation of Particulates for Cell Culture Studies Microcrystalline particulates of LiNc-BuO were suspended in complete MEM medium (10 mg/0.5 ml) and sonicated for 30 sec pulse for ten times on ice with a probe sonicator at a setting of 5. The particulate suspension was cooled for 1 min between two successive 30 sec bursts of sonication. At the end of sonication, the suspension was placed on ice for exactly 2 min to allow the heavier particulates to settle down at the bottom of the tube and the supernatant liquid was transferred to a separate tube for intracellular delivery. The solution contained fine particulates of LiNc-BuO with a particulate size <2 μm. All the preparations were carried out under sterile conditions.
Internalization of Particulates into Endothelial Cells BLMVECs, at 70% confluence (10^4 cells/35 mm dish), in 1 ml complete MEM were treated with 50 μl of LiNc-BuO particulate suspension that contained particulates of <2 μm prepared by procedure as described under Materials and Methods. The cells were maintained at 37° C. under 95% air/5% CO2 environment. At 6 h intervals, for 72 h, cells were examined under light microscope for internalization of LiNc-BuO particulates. […] The cell pellet was resuspended in MEM containing glucose (0.5 g per 500 ml), at a density of 2×10^5 cells/ml and used for EPR analysis. Cells after LiNc-BuO internalization and repeated washings were photographed under an inverted microscope while still adherent to the substratum of the 35 mm dish. Cell viability was assessed by light microscopy and Alamar Blue assay according to the manufacturer's recommendations. Cell separation by trypsinization was avoided to keep the cell morphology and function in tact.
A 20 μL volume of the cell suspension containing 4,000 cells and 10 μM TAM was drawn into a gas-permeable Teflon tube and subjected to EPR spectroscopy as described below. The measurements were also carried out with Menadione (50 μM) and KCN (100 μM).
EPR Measurements The EPR measurements were carried out using a Bruker X-band (9.8 GHz) spectrometer (Bruker Instruments, Karlshrue, Germany) equipped with TM110 cavity. EPR spectral acquisitions were performed using custom-developed data acquisition software (SPEX) that was capable of fully automated data acquisition and processing. Unless otherwise mentioned, the EPR line-widths reported are peak-to-peak widths (.Bpp) of the first derivative spectra.
Simultaneous Measurements of LiNc-BuO and TAM Line-Shapes LiNc-BuO and TAM were used as site specific oximetry probes to measure intra- and extracellular oxygen concentration, respectively. Both LiNc-BuO and TAM give a single-line EPR spectrum, whose amplitude (intensity) and width depend on the amount/concentration of the probe and oxygen, respectively.
Data set [3] has as its system K56 (an erythroleukemic cell line) and A 431 (an epidermal carcinoma cell line). The following applies: 200 μM; cited from earlier work.
Data set [4] is described as follows: Reduction of particle size using high frequency ultrasound. In kind it is physicochemical. The following applies: after 20 kHz then 269-1062.4 kHz sonication in water. As to the method:
LiNc-BuO particles were crushed to a fine powder using a spatula. LiNc-BuO (20 mg) was suspended in […] of water without any additives (a total of 5 samples were made). The samples were then sonicated at 20 kHz frequency. 20 kHz sonolysis was conducted at a power setting of “2” for a total time of 5 minutes. All 5 samples were sonicated in this way. The samples were then allowed to sit overnight. The following day, the supernatant was extracted from all samples and placed in a measuring cylinder to make a 5 ml sample of suspended, small particles in aqueous solution. 1 ml of this stock was used to determine the particle size. The remaining 4 ml stock LiNc-BuO suspension was sonicated at various frequencies in the following way: 1 ml stock was placed in a test tube and suspended in the ultrasound bath which was operated at either 269, 354, 803 or 1062.4 kHz and a power of 60 W for a total time of 10 minutes. The 1 ml sample was then diluted to 2 ml using Milli-Q filtered water and the particle size determined. […] The procedure yielded particulates with mean size, 240 nm, with a min size, 72 nm.

Data set [5] relates to Human arterial smooth muscle cells (HASMCs).
Method: Cultute of Smooth Muscle Cells Human arterial smooth muscle cells (HASMCs) were obtained from Clonetics, San Diego, Calif. at passage 4. Cells were cultured and passed in Ham's medium containing 225 ml of DMEM, 225 ml of F-12 medium, 50 ml of FBS (10%), 5 ml of glutamate and 5 ml of antibiotics in a final volume of 500 ml. Cell cultures were maintained at 37° C. under 95% air/5% CO2 environment in 35 mm dishes. HASMCs up to passage 11 were used in the current study.
Preparation of Particulates for Cell Culture Studies Fine crystals of freshly synthesized LiNc-BuO were suspended in Ham's medium (10 mg/0.5 ml) and sonicated ten times for 30 sec on ice with a probe sonicator at a setting of 5. The particulate mixture was cooled on ice for 1 min between two successive 30 sec burst of sonication. […] The size of the particulates for intracellular delivery was <2 μm as determined by optical microscopy.
Internalization of Particulates into Smooth Muscle Cells HMSMCs, at 70% confluence (10^4 cells/dish), in 1 ml Ham's medium were treated with 50 μl of LiNc-BuO particulate suspension that contained particulates of <2 μm prepared by the procedure as mentioned before. […] Cell viability was assessed by light microscopy and Alamar Blue assay according to the manufacturer's recommendations.
The test system of data set [6] is gastrocnemius muscle tissue of C3H mice. Description: Long-term stability and oxygen response of particulates implanted in gastrocnemius muscle. Particulars: versus original unimplanted particulate, through 180 day study. In kind it is in vivo. On the procedure:
Animal Studies Female C3H mice were used in the present work. The mice were supplied through the Frederick Cancer Research Center Animal Production, Frederick, Md. The animals were received at 6 weeks of age and housed five per cage in climate-controlled rooms and allowed food and acidified water ad lib. The animals were on average 50 days old at the time of experimentation and weighed 25±3 g. Experiments were conducted according to the principles outlined in the Guide for the Care and Use of Laboratory Animals prepared by the Institute of Laboratory Animal Resources, National Research Council.
Implantation of LiNc-BuO in Tumor and Gastrocnemius Muscle of Mice Mice were anesthetized with breathing of isoflurane (1.5%)—air mixture delivered through a nose cone. […]
Stability in Tissues In order to evaluate the long-term stability of these particulates in tissues, we implanted the particulates in the gastrocnemius muscle tissue of mice and performed repeated measurements of pO2 in the same animals over a period of time. […] The EPR spectrum of the particulate in the leg was recorded periodically up to 180 days following the implantation of particulate (FIG. 4). […] Mice were periodically sacrificed through the 180 day study period and tissue pO2 values were assessed to verify the registration of anoxic pO2 in the dead tissue. […]

A short description of data set [7]: Effect of biological oxidoreductants, pH and radiation on EPR stability and oxygen response. In kind it is physicochemical. From the text: Effect of Biological Oxidoreductants, pH, Temperature, and Radiation Since our goal was to use the newly synthesized particulate material for biological applications, we thoroughly investigated the EPR stability (paramagnetism) as well as sensitivity of the EPR line-width to molecular oxygen in presence of a variety of biological oxidants, reductants, pH and radiation. […] We also observed that pH of the medium in the range 2-10 had no effect on their EPR sensitivity to oxygen. We also treated the particulates with 15.5 Gy of Cobalt-60 γ-ray irradiation for 10 min and found no effect on the EPR properties of the particulates.

Setting [8] is: switching gas between nitrogen and room air.
Where [9] appears, read: particulates <2 μm, within 18 h.

“And” between values parts separate entries of the source, which are not always exact repeats. Equal entries are not always repeated. “Also recorded” adds a separate entry of the source.

`c1ccc2c(c1)[I+]c1ccccc1-2` [DPI, diphenyleneiodonium chloride]: in data set [1], the “effect on oxygen consumption rate (OCR)” value was “complete inhibition of oxygen consumption; also recorded: complete inhibition of the OCR; also recorded: completely blocked”.

On to `CC1=CC(=O)c2ccccc2C1=O` [menadione], for which, in data set [1], the “effect on oxygen consumption rate (OCR)” value was “increased rates of oxygen consumption; also recorded: increased the OCRs”. The “increase in OCR” value in data set [1] (50 μM) is reported as “two-fold increase”. Also, the “effect on OCR at lower concentrations” value in data set [1] (10 and 50 μM, measured immediately) is “significant increase in the OCR”. Besides, in data set [1] (100 and 200 μM, measured immediately), the “effect on OCR at higher concentrations” value was “decrease in the OCR; also recorded: significantly less compared to the control values”. For the same molecule, the “effect on intra- and extracellular pO2 and oxygen gradient” value in data set [2] (menadione 50 μM, cyanide 100 μM, listed as Menadione) was “did not affect significantly”. Also, in data set [3], the “increase of intra- and extracellular pO2” value is given as 10-15%.

Take `C=C(C)[C@H]1Cc2c(ccc3c2O[C@@H]2COc4cc(OC)c(OC)cc4[C@@H]2C3=O)O1` [rotenone]: in data set [1], the “effect on oxygen consumption rate (OCR)” value was “complete inhibition of oxygen consumption; also recorded: complete inhibition of the OCR; also recorded: completely inhibited the consumption of oxygen”.

Regarding “Lithium 5,9,14,18,23,27,32,36-octa-n-butoxy-2,3-naphthalocyanine [LiNc-BuO]”, the “spin density relative to LiPc” value was “seven-fold higher”. Besides, for the setting “0% oxygen, X-band, room temperature”, the “anoxic peak-to-peak EPR line-width” value stood at 210 mg. Also, where the note is “20.9% oxygen (159 mmHg)”, the “peak-to-peak EPR line-width in room air” value amounted to 1550 mg. Also, for the setting “100% oxygen, 760 mmHg”, the “peak-to-peak EPR line-width in 100% oxygen” value is 6675 mg. Further, under “X-band”, the microwave power saturation result is reported as “not saturable for up to 25 mW; also recorded: nonsatuarable up to 25 mW”. In addition, for the setting “linear in pO2 range measured (0-160 or 0-760 mmHg)”, the “oxygen sensitivity (slope of line-width versus pO2)” value turned out to be 8.5 mG/mmHg. Also, the pO2 resolution (physiological range) was ~0.2 mmHg and ~0.1 mmHg. In addition, for the setting “suspended in PBS, 10% oxygen (pO2 76 mmHg)”, the “peak-to-peak EPR line-width at 10% oxygen” value stood at 852 mg. Moreover, under setting [8], the “response time, deoxygenation” value is about 20 s and the “response time, oxygenation” value is about 1 s. For the same molecule, the “effect of aqueous dispersion media on line-width and lineshape” value (water, PBS, cell culture media) is reported as “not affected”. In data set [4], the mean particle size is recorded as 240 nm and the min particle size was 72 nm. Further, the “cytotoxicity (light microscopy, Alamar Blue)” value in data set [5] is “no apparent cytotoxicity”. Moreover, the “internalization of particulates in cells” value in data set [5] (setting [9]) is “almost all the cells in the 35 mm dish internalized the particulates”. Moreover, in data set [2], the “cytotoxicity (light microscopy, Alamar Blue)” value is on record as “no cytotoxicity” and the “viability of cells that internalized probe (Trypan blue exclusion)” value was over 95%. Moreover, the “mean spin density of particulates internalized in a single cell” value in data set [2] (in comparison with TAM standard) is 6×10^11 spins/cell. Moreover, the “cells that internalized the particulates” value in data set [2] (setting [9]) is on record as about 95%. In addition, the “oxygen sensitivity of particulates recovered from dead tissue” value in data set [6] was “not changed”. Besides, the “effect of gamma irradiation on EPR properties” value in data set [7] (15.5 Gy Cobalt-60, 10 min) is “no effect”. Further, the “effect of pH on EPR sensitivity to oxygen” value in data set [7] (pH 2-10) was “no effect”. In addition, in data set [7] (superoxide, hydroxyl, H2O2, singlet oxygen, alkylperoxyl, nitric oxide, GSH, ascorbate, 30 min), the “effect of oxidants and reductants on EPR spectrum or oxygen response” value is “did not show any effect”.
